Assay [1] has as its system L1210. The assay is described as follows: Inhibitory activity against lymphoid leukemia L1210 cells. It is filed as functional, cell-based. The following applies: Mus musculus.
The test system of assay [2] is P388. The assay is described as follows: Increase in the life span of mice with P388 leukemia after the administration of the highest non toxic dose (0.5 mg/kg). It is filed as functional, Mus musculus.
Assay [3] deals with L1210. Description: Mitotic index (fraction of cells in mitosis divided by total cells) in cultured lymphoid leukemia L1210 cells. It counts as functional, Mus musculus.
Assay [4] has as its system P388. The assay is described as follows: Increase in the life span of mice with P388 leukemia after the administration of the highest non toxic dose (30 mg/kg). It counts as functional. The settings on record: Mus musculus.
Assay [5] relates to P388. Description: Increase in the life span of mice with P388 leukemia after the administration of the highest non toxic dose (2 mg/kg). It counts as functional, Mus musculus.
Assay [6] concerns P388. The assay is described as follows: Increase in the life span of mice with P388 leukemia after the administration of the highest non toxic dose (1 mg/kg). It is filed as functional. The following applies: Mus musculus.

In the assay on L1210 [1], `CCOC(=O)Nc1cc2c(c(N)n1)N=C(c1ccccc1)[C@H](C)N2` [MIVOBULIN] had an IC50 of 0.094 nM. In addition, the Increase with P388 [2] is reported as 64%. Also, the MI0.5 in the assay on L1210 [3] was determined as 0.14 nM.
Consider `CCOC(=O)Nc1cc2c(c(N)n1)N=C(c1ccccc1)[C@@H](C)N2`, for which half-maximal inhibition in the assay with L1210 [1] (IC50) required 17 nM. The same compound yielded an ILS at 30 mg/kg in the assay on P388 [4] of 88%. In addition, the MI0.5 in the assay with L1210 [3] came to 27 nM.
The compound `CCOC(=O)Nc1cc2c(c(N)n1)N=C(c1ccccc1)CN2` yielded an IC50 in the assay on L1210 [1] of 4.7 nM. This compound registered an Increase with P388 [5] of 51%. Also, in the assay with L1210 [3], the MI0.5 was 2.8 nM.
As to `CCOC(=O)Nc1cc2c(c(N)n1)N=C(c1ccccc1)C(C)N2` (configuration not stated), the half-inhibitory concentration (IC50) with L1210 [1] stood at 0.2 nM. The ILS at 1 mg/kg with P388 [6] came out at 71%. The MI0.5 in the assay on L1210 [3] worked out at 0.58 nM.

As a reminder, the IC50 is the concentration that gives 50% inhibition. Low readings indicate greater potency, high ones weaker potency. The ILS is the gain in survival time of treated over control animals, in per cent.

These data come from ChEMBL document CHEMBL1124583, “New anticancer agents: chiral isomers of ethyl 5-amino-1,2-dihydro-2-methyl-3-phenylpyrido[3,4-b]pyrazine-7-car bamate ” (J Med Chem, 1989).
